Test results reported in the NIST ThermoML archive (doi:10.1016/j.jct.2012.03.017).
“And” between values parts separate entries of the source, which are not always exact repeats. Equal values may be shown once. Numbers after ± are expanded uncertainties.

Key:
[1] = Crystal, Calculated from knudsen effusion weight loss
[2] = molar enthalpy of vaporization or sublimation; settings: 298.15 K; Crystal; drop calorimetry

OC1c2ccccc2Oc2ccccc21 [9H-xanthen-9-ol]
[1]
Settings	vapor or sublimation pressure
333.18 K	6.91e-05 ± 2e-05 kPa and 5.67e-05 ± 2e-05 kPa and 6.28e-05 ± 2e-05 kPa
335.14 K	8.54e-05 ± 2e-05 kPa and 8.17e-05 ± 2e-05 kPa and 7.79e-05 ± 2e-05 kPa
337.08 K	0.0001045 ± 2e-05 kPa and 0.0001126 ± 2e-05 kPa and 0.0001038 ± 2e-05 kPa
339.18 K	0.0001355 ± 2.1e-05 kPa and 0.0001321 ± 2.1e-05 kPa and 0.000152 ± 2.1e-05 kPa
341.13 K	0.0001838 ± 2.1e-05 kPa and 0.0001813 ± 2.1e-05 kPa and 0.0001645 ± 2.1e-05 kPa
343.08 K	0.0002256 ± 2.2e-05 kPa and 0.0002318 ± 2.2e-05 kPa and 0.0002156 ± 2.1e-05 kPa
345.08 K	0.0002616 ± 2.2e-05 kPa and 0.0002749 ± 2.2e-05 kPa and 0.0002595 ± 2.2e-05 kPa
347.14 K	0.0003355 ± 2.3e-05 kPa and 0.0003321 ± 2.3e-05 kPa and 0.0003104 ± 2.3e-05 kPa
349.17 K	0.0004364 ± 2.5e-05 kPa and 0.0003742 ± 2.4e-05 kPa and 0.0003877 ± 2.4e-05 kPa
351.07 K	0.0005411 ± 2.8e-05 kPa and 0.0005557 ± 2.8e-05 kPa and 0.0005348 ± 2.8e-05 kPa
353.12 K	0.0006853 ± 3.1e-05 kPa and 0.0006411 ± 3e-05 kPa and 0.0006134 ± 3e-05 kPa
355.18 K	0.0008786 ± 3.7e-05 kPa and 0.0007534 ± 3.3e-05 kPa and 0.0007633 ± 3.4e-05 kPa

NC(=O)C1c2ccccc2Oc2ccccc21 [9H-xanthene-9-carboxamide]
Settings	molar enthalpy [kcal/mol]
[2]	31.1 ± 1

[1]
Settings	vapor or sublimation pressure
399.14 K	0.0001229 ± 2.1e-05 kPa and 0.0001189 ± 2e-05 kPa and 0.000116 ± 2e-05 kPa
401.14 K	0.000154 ± 2.1e-05 kPa and 0.0001484 ± 2.1e-05 kPa and 0.000144 ± 2.1e-05 kPa
403.16 K	0.0001893 ± 2.1e-05 kPa and 0.0001856 ± 2.1e-05 kPa and 0.0001767 ± 2.1e-05 kPa
405.15 K	0.0002159 ± 2.1e-05 kPa and 0.0002174 ± 2.1e-05 kPa
407.19 K	0.0002731 ± 2.2e-05 kPa and 0.0002662 ± 2.2e-05 kPa
409.17 K	0.0003106 ± 2.3e-05 kPa and 0.0002981 ± 2.3e-05 kPa and 0.0003072 ± 2.3e-05 kPa
411.15 K	0.0003968 ± 2.4e-05 kPa and 0.0003833 ± 2.4e-05 kPa
413.19 K	0.0004758 ± 2.6e-05 kPa and 0.0004828 ± 2.6e-05 kPa and 0.0004614 ± 2.6e-05 kPa
415.15 K	0.0005574 ± 2.8e-05 kPa and 0.0005463 ± 2.8e-05 kPa
417.17 K	0.000649 ± 3e-05 kPa and 0.0006492 ± 3e-05 kPa
419.18 K	0.0007769 ± 3.4e-05 kPa and 0.0008205 ± 3.5e-05 kPa
421.2 K	0.0009516 ± 3.9e-05 kPa and 0.0009609 ± 3.9e-05 kPa

O=C(O)C1c2ccccc2Oc2ccccc21 [9H-xanthene-9-carboxylic acid]
Settings	molar enthalpy [kcal/mol]
[2]	30 ± 0.717

[1]
Settings	vapor or sublimation pressure
383.08 K	0.000119 ± 2e-05 kPa and 0.0001121 ± 2e-05 kPa and 0.0001132 ± 2e-05 kPa
385.15 K	0.0001477 ± 2.1e-05 kPa and 0.0001432 ± 2.1e-05 kPa and 0.0001353 ± 2.1e-05 kPa
387.25 K	0.0001726 ± 2.1e-05 kPa and 0.0001686 ± 2.1e-05 kPa and 0.0001619 ± 2.1e-05 kPa
389.12 K	0.0002124 ± 2.1e-05 kPa and 0.0002049 ± 2.1e-05 kPa and 0.0002165 ± 2.1e-05 kPa
391.13 K	0.0002584 ± 2.2e-05 kPa and 0.0002449 ± 2.2e-05 kPa
393.14 K	0.0003154 ± 2.3e-05 kPa and 0.0003062 ± 2.3e-05 kPa
395.13 K	0.0003811 ± 2.4e-05 kPa and 0.0003776 ± 2.4e-05 kPa and 0.0003653 ± 2.4e-05 kPa
397.11 K	0.0004814 ± 2.6e-05 kPa and 0.0004632 ± 2.6e-05 kPa
399.14 K	0.0005597 ± 2.8e-05 kPa and 0.0005447 ± 2.8e-05 kPa and 0.0005518 ± 2.8e-05 kPa
401.13 K	0.0006834 ± 3.1e-05 kPa and 0.0006937 ± 3.2e-05 kPa and 0.0006737 ± 3.1e-05 kPa
403.12 K	0.0008362 ± 3.6e-05 kPa and 0.0008293 ± 3.6e-05 kPa and 0.0007816 ± 3.4e-05 kPa
405.15 K	0.0009639 ± 3.9e-05 kPa and 0.0009409 ± 3.9e-05 kPa
